Reference: patent US20160206688A1, “METHODS FOR TREATING BACTEREMIA AND OSTEOMYELITIS USING ORITAVANCIN” (THE MEDICINES COMPANY, priority 2013, published 2016)
≈ marks a conversion by molar mass, not a printed value. Values belong to the molecule of their own block, whether it stands above or below them.

What was measured:
[1] = tested on: VRE; assay: Susceptibility of the subject's blood culture isolate (treatment history); format: cell-based
Excerpt: 11, 2013; the plan was for at least 8 weeks of antibiotic therapy.

[2] = tested on: S. aureus; assay: Broth microdilution MIC, European bacteraemia isolates 2010-2012; format: cell-based; settings: S. aureus Methicillin-resistant (1,708); for % Resistant, EUCAST / % Susceptible, EUCAST: EUCAST 2013 breakpoints; for MIC50 / MIC90: Staphylococcus aureus; for MIC50 / MIC90 / MIC Range: Table 2; for MIC50: read-out: MIC 50%; for MIC90: read-out: MIC 90%
Description: (§1) A total of 2,904 clinical strains responsible for documented bacteremia among unique hospitalized patients in 38 hospitals in 11 European Union countries. Israel, Russia, Turkey and Ukraine were included in this study (2010-2012). Isolates were submitted to a central monitoring laboratory (JMI Laboratories, North Liberty. Iowa. USA), following previously established protocols. Bacterial species identification was performed by using an automated system (Vitek®2; bioMèrieux, Hazelwood, Mo., USA) or conventional biochemical algorithms, as required.
(§2) Isolates were tested for susceptibility by broth microdilution methods following the Clinical and Laboratory Standards Institute (CLSI; M07-A9, 2012) document. Susceptibility testing was performed in cation-adjusted Mueller-Hinton broth (CA-MHB) using dry-form panels manufactured by Thermo Fisher Scientific, formerly TREK Diagnostics Systems/Sensititre (Cleveland. Ohio, USA). These panels provide results equivalent to the CLSI-approved broth microdilution method supplemented with 0.002% polysorbate-80.
(§3) Quality assurance was performed by concurrent testing of CLSI-recommended (M100-S23, 2013) strains: E. faecalis ATCC 29212 and S. aureus ATCC 29213. Interpretation of comparator MIC results was in accordance with published CLSI (M100-S23) and European Committee on Antimicrobial Susceptibility Testing (EUCAST, 2013) criteria.

[3] = tested on: Coagulase-negative staphylococci; assay: as above; format: cell-based, coagulase-negative staphylococci (CoNS); settings: Coagulase-negative staphylococci (646); for MIC50: read-out: MIC 50%; for MIC90: read-out: MIC 90%
Description: as §1, §2, §3

[4] = tested on: E. faecalis; assay: as above; format: cell-based, Enterococcus faecalis; settings: for % susceptible: E. faecalis strains, criteria not stated; for MIC50 / MIC90: Enterococcus faecalis; for MIC50 / MIC90 / MIC Range: Table 2; for MIC50: read-out: MIC 50%; for MIC90: read-out: MIC 90%; for MIC Range: includes four VanA-phenotype strains
Description: as §1, §2, §3

[5] = tested on: E. faecium; assay: as above; format: cell-based, Enterococcus faecium; settings: for % Susceptible, CLSI / % Resistant, CLSI: CLSI M100-S23 breakpoints; for MIC50 / MIC90: Enterococcus faecium; for MIC50 / MIC90 / MIC Range / MIC 50%: Table 2; for MIC50: read-out: MIC 50%; for MIC90: read-out: MIC 90%; for % susceptible: VanA-phenotype E. faecium, criteria not stated; for % Resistant, EUCAST / % Susceptible, EUCAST: EUCAST 2013 breakpoints
Description: as §1, §2, §3

[6] = tested on: E. faecalis; assay: Broth microdilution MIC, US isolates 2011-2012, blood vs non-blood; format: cell-based
Description: (§4) 527 E. faecalis, 176 E. faecium, and 790 BHS (335 S. pyogenes and 455 S. agalactiae) clinical, single patient, non-consecutive isolates were collected in 2011-2012 from 46 sites geographically distributed across the United States. The MICs were determined by broth microdilution testing performed in accordance with CLSI M7 and M100 guidelines. From the resulting database, this analysis focused on the activities of ORI, vancomycin (VAN), daptomycin (DAP), and linezolid (LZD) according to specimen source.

[7] = tested on: E. faecium; assay: as above; format: cell-based
Description: as §4

[8] = tested on: S. agalactiae; assay: as above; format: cell-based
Description: as §4

[9] = tested on: S. pyogenes; assay: as above; format: cell-based
Description: as §4

[10] = tested on: MDR SA; assay: Microdilution MIC against MDR SA by specimen source; format: cell-based, S. aureus
Description: 456 clinical, single-patient, non-consecutive, MDR SA isolates from the known specimen sources collected in 2011-2012 were analyzed. MDR was defined as resistant to ≧3 of the following: erythromycin, clindamycin, gentamicin, levofloxacin, and trimethoprim/sulfamethoxazole. 382 were MRSA and 74 were MSSA. MICs were determined by microdilution testing in accordance with CLSI M7 and M100 guidelines. Although other comparator drugs were tested, this analysis focuses on the activities of ORI, VAN, DAP, and LZD.

[11] = E. faecalis (445), CLSI M100-S23 breakpoints
[12] = E. faecium Vancomycin-resistant (VanA-phenotype) (153)
[13] = E. faecium Vancomycin-susceptible (257)
[14] = E. faecalis (445), EUCAST 2013 breakpoints

MIC ([1]; 2012 December): 6 µg/mL (≈ 3.7 µM) | MIC ([1]; 2012 July): 4 µg/mL (≈ 2.47 µM) | MIC50 [2]: 0.25 µg/mL (≈ 0.154 µM) | MIC90 [2]: 0.5 µg/mL (≈ 0.309 µM) | MIC Range [2]: 0.12 to 1 µg/mL | MIC Range ([3]; Table 2): ≦0.06-2 mg/L | MIC50 ([3]; Table 2): 0.25 µg/mL (≈ 0.154 µM) | MIC90 ([3]; Table 2): 0.5 µg/mL (≈ 0.309 µM) | MIC50 ([4]; E. faecalis (445)): 1 µg/mL (≈ 0.617 µM) | MIC90 ([4]; E. faecalis (445)): 1 µg/mL (≈ 0.617 µM) | MIC Range ([4]; E. faecalis (445)): ≦0.06-4 mg/L | MIC50 [5, 12]: 2 µg/mL (≈ 1.23 µM) | MIC90 [5, 12]: 2 µg/mL (≈ 1.23 µM) | MIC90 [5, 13]: 2 µg/mL (≈ 1.23 µM) | MIC Range [5, 12]: 0.25 to 4 µg/mL | MIC 50% [5, 13]: 2 µg/mL (≈ 1.23 µM) | MIC Range [5, 13]: 0.12 to 4 µg/mL | MIC90 ([6]; Blood, N 116): 2 µg/mL (≈ 1.23 µM) | MIC90 ([6]; Non-Blood, N 411): 2 µg/mL (≈ 1.23 µM) | MIC90 ([7]; Blood, N 84): 4 µg/mL (≈ 2.47 µM) | MIC90 ([7]; Non-Blood, N 92): 4 µg/mL (≈ 2.47 µM) | MIC90 ([8]; Blood, N 100): 0.25 µg/mL (≈ 0.154 µM) | MIC90 ([8]; Non-Blood, N 355): 0.25 µg/mL (≈ 0.154 µM) | MIC90 ([9]; Blood, N 53): 0.06 µg/mL (≈ 0.037 µM) | MIC90 ([9]; Non-Blood, N 282): 0.06 µg/mL (≈ 0.037 µM) | MIC50 ([10]; Blood, n = 108): 0.5 µg/mL (≈ 0.309 µM) | MIC90 ([10]; Blood, n = 108): 0.5 µg/mL (≈ 0.309 µM) | Mode (MIC) ([10]; Blood, n = 108): 0.5 µg/mL | Range (MIC) ([10]; Blood, n = 108, in µg/mL): 0.25-4 | MIC50 ([10]; Respiratory, N = 157): 0.5 µg/mL (≈ 0.309 µM) | MIC90 ([10]; Respiratory, N = 157): 0.5 µg/mL (≈ 0.309 µM) | Mode (MIC) ([10]; Respiratory, N = 157): 0.5 µg/mL | Range (MIC) ([10]; Respiratory, N = 157, in µg/mL): 0.12-1 | MIC50 ([10]; Skin/Wound, N = 191): 0.5 µg/mL (≈ 0.309 µM) | MIC90 ([10]; Skin/Wound, N = 191): 0.5 µg/mL (≈ 0.309 µM) | Mode (MIC) ([10]; Skin/Wound, N = 191): 0.5 µg/mL | Range (MIC) ([10]; Skin/Wound, N = 191): ≦0.06-1
SMILES: CCCCCCCCCC(=O)N[C@@H](Cc1c[nH]c2ccccc12)C(=O)N[C@H](CC(N)=O)C(=O)N[C@@H](CC(=O)O)C(=O)N[C@@H]1C(=O)NCC(=O)N[C@@H](CCCN)C(=O)N[C@@H](CC(=O)O)C(=O)N[C@H](C)C(=O)N[C@@H](CC(=O)O)C(=O)NCC(=O)N[C@H](CO)C(=O)N[C@@H]([C@H](C)CC(=O)O)C(=O)N[C@@H](CC(=O)c2ccccc2N)C(=O)O[C@@H]1C [Daptomycin, daptomycin]
susceptibility ([1]; 2012 July): borderline susceptible | % Susceptible, CLSI ([2]; CLSI M100-S23 breakpoints): 100.0/— % | % Resistant, EUCAST [2]: 0.0% | % Susceptible, EUCAST [2]: 100.0% | % Susceptible, CLSI [4, 11]: 100.0/— % | % susceptible [4]: 100% | % Susceptible, CLSI [5, 12]: 100.0/— % | % Susceptible, CLSI [5, 13]: 100.0/— % | % susceptible [5]: 100%

MIC50 [2]: 1 µg/mL (≈ 2.96 µM) | MIC90 [2]: 1 µg/mL (≈ 2.96 µM) | MIC Range [2]: 0.25 to 2 µg/mL | MIC50 ([3]; Table 2): 0.5 µg/mL (≈ 1.48 µM) | MIC90 ([3]; Table 2): 1 µg/mL (≈ 2.96 µM) | MIC50 ([4]; E. faecalis (445)): 1 µg/mL (≈ 2.96 µM) | MIC90 ([4]; E. faecalis (445)): 2 µg/mL (≈ 5.93 µM) | MIC Range ([4]; E. faecalis (445)): 0.5 to 2 µg/mL | MIC50 [5, 12]: 1 µg/mL (≈ 2.96 µM) | MIC90 [5, 12]: 2 µg/mL (≈ 5.93 µM) | MIC90 [5, 13]: 1 µg/mL (≈ 2.96 µM) | MIC Range [5, 12]: 0.5 to 8 µg/mL | MIC 50% [5, 13]: 1 µg/mL (≈ 2.96 µM) | MIC Range [5, 13]: 0.25 to 2 µg/mL | MIC90 ([6]; Blood, N 116): 2 µg/mL (≈ 5.93 µM) | MIC90 ([6]; Non-Blood, N 411): 2 µg/mL (≈ 5.93 µM) | MIC90 ([7]; Blood, N 84): 2 µg/mL (≈ 5.93 µM) | MIC90 ([7]; Non-Blood, N 92): 2 µg/mL (≈ 5.93 µM) | MIC90 ([8]; Blood, N 100): 1 µg/mL (≈ 2.96 µM) | MIC90 ([8]; Non-Blood, N 355): 1 µg/mL (≈ 2.96 µM) | MIC90 ([9]; Blood, N 53): 1 µg/mL (≈ 2.96 µM) | MIC90 ([9]; Non-Blood, N 282): 1 µg/mL (≈ 2.96 µM) | MIC50 ([10]; Blood, n = 108): 2 µg/mL (≈ 5.93 µM) | MIC90 ([10]; Blood, n = 108): 2 µg/mL (≈ 5.93 µM) | Mode (MIC) ([10]; Blood, n = 108): 2 µg/mL | MIC50 ([10]; Respiratory, N = 157): 2 µg/mL (≈ 5.93 µM) | MIC90 ([10]; Respiratory, N = 157): 2 µg/mL (≈ 5.93 µM) | Mode (MIC) ([10]; Respiratory, N = 157): 2 µg/mL | MIC50 ([10]; Skin/Wound, N = 191): 2 µg/mL (≈ 5.93 µM) | MIC90 ([10]; Skin/Wound, N = 191): 2 µg/mL (≈ 5.93 µM) | Mode (MIC) ([10]; Skin/Wound, N = 191): 2 µg/mL
SMILES: CC(=O)NC[C@H]1CN(c2ccc(N3CCOCC3)c(F)c2)C(=O)O1 [Linezolid, linezolid]
susceptibility ([1]; 2012 July): susceptible | % Resistant, CLSI ([2]; CLSI M100-S23 breakpoints): 0.0% | % Susceptible, CLSI ([2]; CLSI M100-S23 breakpoints): 100.0% | % Resistant, EUCAST [2]: 0.0% | % Susceptible, EUCAST [2]: 100.0% | % Resistant, CLSI ([3]; CLSI M100-S23 breakpoints): 0.8% | % Resistant, CLSI [4, 11]: 0.0% | % Susceptible, CLSI [4, 11]: 100.0% | % Resistant, EUCAST [4, 14]: 0.0% | % Susceptible, EUCAST [4, 14]: 100.0% | % susceptible [4]: 100% | % Resistant, CLSI [5, 12]: 3.8% | % Susceptible, CLSI [5, 12]: 96.2% | % Resistant, EUCAST [5, 12]: 3.8% | % Susceptible, EUCAST [5, 12]: 96.2% | % Resistant, CLSI [5, 13]: 0.0% | % Susceptible, CLSI [5, 13]: 100.0% | % Resistant, EUCAST [5, 13]: 0.0% | % Susceptible, EUCAST [5, 13]: 100.0% | % susceptible [5]: 96.2%
